In brackets after ≈: the same amount, converted by molar mass. Activity calls are given as the source filed them. The rule behind the calls is not given here. Bridge positions count the residues as written; N and C are the ends. Peptide text beside a SMILES is read from it. I, II: the chains in the order shown. * marks the point of attachment. Palmitoyl = CCCCCCCCCCCCCCCC(=O)*; Lauroyl = CCCCCCCCCCCC(=O)*; Decanoyl = CCCCCCCCCC(=O)*
Experiments:
[1] = Self-aggregation activity of the compound using 8-(Phenylamino)-1-naphthalenesulfonic acid as fluorescent probe at 300 uM by fluorescence assay; format: physicochemical
[2] = Toxicity in New Zealand white rabbit erythrocytes assessed as hemolytic activity after 60 mins; format: cell-based, Oryctolagus cuniculus; settings: erythrocyte, 1 h
Escherichia coli [3] = assay: Antibacterial activity against Escherichia coli ATCC 25922 after 24 hrs by broth microdilution method; format: functional; settings: ATCC 25922, 24 h
Pseudomonas aeruginosa [4] = assay: Antibacterial activity against Pseudomonas aeruginosa DM23155 after 24 hrs by broth microdilution method; format: functional; settings: DM23155, 24 h
Klebsiella pneumoniae [5] = assay: Antibacterial activity against Klebsiella pneumoniae DM4299 after 24 hrs by broth microdilution method; format: functional; settings: DM4299, 24 h
Pseudomonas aeruginosa [6] = assay: Induction of cytoplasmic membrane depolarization in Pseudomonas aeruginosa DM23155 at 4 times MIC after 1 hr by fluorescence assay; format: functional, organism-based
[7] = Induction of calcein leakage from DOPC artificial membrane at 1:32 ratio of compound to lipid by fluorescence assay; format: physicochemical
Pseudomonas aeruginosa [8] = assay: Induction of cytoplasmic membrane disruption in Pseudomonas aeruginosa DM23155 assessed as membrane integrity at 1 to 2 times MIC after 1 hr by fluorescence assay; format: functional
Lipopolysaccharide (LPS) [9] = assay: Displacement of dansylcadaverine from Escherichia coli 0111:B4 LPS at 15 to 30 uM after 5 mins by high-throughput fluorescence displacement assay
Lipopolysaccharide (LPS) [10] = assay: Induction of Escherichia coli 0111:B4 LPS neutralization using p-nitroaniline assessed as concentration required to neutralize 50% after 1 hr by limulus amebocyte lysate assay
[11] = Induction of calcein leakage from DOPE/DOPG artificial membrane at 1:32 ratio of compound to lipid by fluorescence assay; format: physicochemical
Pseudomonas aeruginosa [12] = assay: Antibacterial activity against Pseudomonas aeruginosa DM23376 after 24 hrs by broth microdilution method; format: functional; settings: DM23376, 24 h
Pseudomonas aeruginosa [13] = assay: Antibacterial activity against Pseudomonas aeruginosa ATCC 9027 after 24 hrs by broth microdilution method; format: functional; settings: ATCC 9027, 24 h
Pseudomonas aeruginosa [14] = assay: Antibacterial activity against Pseudomonas aeruginosa DU14476 after 24 hrs by broth microdilution method; format: functional; settings: DU14476, 24 h
Pseudomonas aeruginosa [15] = assay: Antibacterial activity against Pseudomonas aeruginosa DM23257 after 24 hrs by broth microdilution method; format: functional; settings: DM23257, 24 h
Pseudomonas aeruginosa [16] = assay: Antibacterial activity against Pseudomonas aeruginosa ATCC 27853 after 24 hrs by broth microdilution method; format: functional; settings: ATCC 27853, 24 h
Pseudomonas aeruginosa [17] = assay: Antibacterial activity against Pseudomonas aeruginosa DR5790 after 24 hrs by broth microdilution method; format: functional; settings: DR5790, 24 h
Pseudomonas aeruginosa [18] = assay: Antibacterial activity against Pseudomonas aeruginosa DR4877 after 24 hrs by broth microdilution method; format: functional; settings: DR4877, 24 h
Pseudomonas aeruginosa [19] = assay: Antibacterial activity against Pseudomonas aeruginosa DR18531 after 24 hrs by broth microdilution method; format: functional; settings: DR18531, 24 h
Pseudomonas aeruginosa [20] = assay: Antibacterial activity against Pseudomonas aeruginosa DM4150R after 24 hrs by broth microdilution method; format: functional
Pseudomonas aeruginosa [21] = assay: Induction of 1-N-phenylnaphthylamine uptake in Pseudomonas aeruginosa DM23155 at 400 uM after 1 hr by fluorescence assay relative to polymyxin B; format: functional
Klebsiella pneumoniae [22] = assay: Antibacterial activity against Klebsiella pneumoniae DS07955 after 24 hrs by broth microdilution method; format: functional; settings: DS07955, 24 h
Klebsiella pneumoniae [23] = assay: Antibacterial activity against Klebsiella pneumoniae DB55301 after 24 hrs by broth microdilution method; format: functional; settings: DB55301, 24 h
Escherichia coli [24] = assay: Antibacterial activity against Escherichia coli DS17232 after 24 hrs by broth microdilution method; format: functional; settings: DS17232, 24 h
Klebsiella pneumoniae [25] = assay: Antibacterial activity against Klebsiella pneumoniae DS16260 after 24 hrs by broth microdilution method; format: functional; settings: DS16260, 24 h
Klebsiella pneumoniae [26] = assay: Antibacterial activity against Klebsiella pneumoniae DU31158 after 24 hrs by broth microdilution method; format: functional; settings: DU31158, 24 h
Escherichia coli [27] = assay: Antibacterial activity against Escherichia coli DM17528 after 24 hrs by broth microdilution method; format: functional; settings: DM17528, 24 h

## CCCCCCCCCCCCCCCC(=O)N[C@@H](CCCNC(=N)N)C(=O)NCC(=O)N[C@@H](CCCNC(=N)N)C(=O)N[C@@H](CCCCN)C(=O)N[C@H](C(=O)N[C@H](C(=O)N[C@@H](CCCNC(=N)N)C(=O)N[C@@H](CCCNC(=N)N)C(=O)N[C@@H](CCCCN)C(=O)N[C@@H](CCCCN)C(=O)O)C(C)C)C(C)C (Palmitoyl-RGRKVVRRKK-OH)
[1]
  Activity: Not Active
[2]
  HC10: 5481 µg/mL
Escherichia coli [3]
  MIC: 10 µM (≈ 15.2 µg/mL)
Pseudomonas aeruginosa [4]
  MIC: 80 µM (≈ 122 µg/mL)
Klebsiella pneumoniae [5]
  MIC: 40 µM (≈ 60.8 µg/mL)

## CCCCCCCCCCCCCCCC(=O)N[C@@H](CCCNC(=N)N)C(=O)NCC(=O)N[C@@H](CCCNC(=N)N)C(=O)N[C@@H](CCCCN)C(=O)NCC(=O)NCC(=O)N[C@@H](CCCNC(=N)N)C(=O)N[C@@H](CCCNC(=N)N)C(=O)N[C@@H](CCCCN)C(=O)N[C@@H](CCCCN)C(=O)O (Palmitoyl-RGRKGGRRKK-OH)
[1]
  Activity: Not Active
[2]
  HC10: 5064 µg/mL
Escherichia coli [3]
  MIC: 10 µM (≈ 14.4 µg/mL)
Pseudomonas aeruginosa [4]
  MIC: 80 µM (≈ 115 µg/mL)
Klebsiella pneumoniae [5]
  MIC: 80 µM (≈ 115 µg/mL)

## CCCCCCCCCCCC(=O)N[C@@H](CCCNC(=N)N)C(=O)NCC(=O)N[C@@H](CCCNC(=N)N)C(=O)N[C@@H](CCCCN)C(=O)N[C@H](C(=O)N[C@H](C(=O)N[C@@H](CCCNC(=N)N)C(=O)N[C@@H](CCCNC(=N)N)C(=O)NCCCC[C@H](NC(=O)[C@H](CCCNC(=N)N)NC(=O)[C@H](CCCNC(=N)N)NC(=O)[C@@H](NC(=O)[C@@H](NC(=O)[C@H](CCCCN)NC(=O)[C@H](CCCNC(=N)N)NC(=O)CNC(=O)[C@H](CCCNC(=N)N)NC(=O)CCCCCCCCCCC)C(C)C)C(C)C)C(=O)N[C@@H](CCCCN)C(=O)O)C(C)C)C(C)C (I: Lauroyl-RGRKVVRRKK-OH / II: Lauroyl-RGRKVVRR; amide I:9-II:C)
[1]
  Activity: 27.6%
Pseudomonas aeruginosa [6]
  Activity: Active
[7]
  Activity: Active
[2]
  HC10: 543 µg/mL
Escherichia coli [3]
  MIC: 6 µM (≈ 15.9 µg/mL)
Pseudomonas aeruginosa [4]
  MIC: 6 µM (≈ 15.9 µg/mL)
Pseudomonas aeruginosa [8]
  Activity: <50%
Lipopolysaccharide (LPS) [9]
  Activity: 130%
Lipopolysaccharide (LPS) [10]
  EC50: 29 µM
[11]
  Activity: Active
Klebsiella pneumoniae [5]
  MIC: 6 µM (≈ 15.9 µg/mL)

## COc1c(N2CCNC(C)C2)c(F)cc2c(=O)c(C(=O)O)cn(C3CC3)c12 (stereo not drawn) [GATIFLOXACIN]
Pseudomonas aeruginosa [12]
  MIC: 4 µM (≈ 1.5 µg/mL)
Pseudomonas aeruginosa [13]
  MIC: 2 µM (≈ 0.751 µg/mL)
Pseudomonas aeruginosa [14]
  MIC: 64 µM (≈ 24 µg/mL)
Pseudomonas aeruginosa [15]
  MIC: 2 µM (≈ 0.751 µg/mL)
Pseudomonas aeruginosa [16]
  MIC: 4 µM (≈ 1.5 µg/mL)
Pseudomonas aeruginosa [17]
  MIC: 64 µM (≈ 24 µg/mL)
Pseudomonas aeruginosa [18]
  MIC: 32 µM (≈ 12 µg/mL)
Pseudomonas aeruginosa [19]
  MIC: 8 µM (≈ 3 µg/mL)
Pseudomonas aeruginosa [20]
  MIC: 2 µM (≈ 0.751 µg/mL)

## CCCCCCCCCC(=O)N[C@@H](CCCNC(=N)N)C(=O)NCC(=O)N[C@@H](CCCNC(=N)N)C(=O)N[C@@H](CCCCN)C(=O)NCC(=O)NCC(=O)N[C@@H](CCCNC(=N)N)C(=O)N[C@@H](CCCNC(=N)N)C(=O)NCCCC[C@H](NC(=O)[C@H](CCCNC(=N)N)NC(=O)[C@H](CCCNC(=N)N)NC(=O)CNC(=O)CNC(=O)[C@H](CCCCN)NC(=O)[C@H](CCCNC(=N)N)NC(=O)CNC(=O)[C@H](CCCNC(=N)N)NC(=O)CCCCCCCCC)C(=O)N[C@@H](CCCCN)C(=O)O (I: Decanoyl-RGRKGGRRKK-OH / II: Decanoyl-RGRKGGRR; amide I:9-II:C)
Pseudomonas aeruginosa [12]
  MIC: 6 µM (≈ 14.6 µg/mL)
Pseudomonas aeruginosa [13]
  MIC: 6 µM (≈ 14.6 µg/mL)
Pseudomonas aeruginosa [14]
  MIC: 3 µM (≈ 7.29 µg/mL)
Pseudomonas aeruginosa [15]
  MIC: 6 µM (≈ 14.6 µg/mL)
Pseudomonas aeruginosa [16]
  MIC: 3 µM (≈ 7.29 µg/mL)
Pseudomonas aeruginosa [17]
  MIC: 3 µM (≈ 7.29 µg/mL)
[7]
  Activity: Active
[2]
  HC10: > 10000 µg/mL
Pseudomonas aeruginosa [18]
  MIC: 6 µM (≈ 14.6 µg/mL)
Pseudomonas aeruginosa [19]
  MIC: 6 µM (≈ 14.6 µg/mL)
Pseudomonas aeruginosa [21]
  Activity: 44.3%
Pseudomonas aeruginosa [20]
  MIC: 6 µM (≈ 14.6 µg/mL)
Escherichia coli [3]
  MIC: 6 µM (≈ 14.6 µg/mL)
Pseudomonas aeruginosa [4]
  MIC: 3 µM (≈ 7.29 µg/mL)
Lipopolysaccharide (LPS) [9]
  Activity: 122%
Lipopolysaccharide (LPS) [10]
  EC50: 142 µM
Klebsiella pneumoniae [5]
  MIC: 3 µM (≈ 7.29 µg/mL)

## C[C@H]1COc2c(N3CCN(C)CC3)c(F)cc3c(=O)c(C(=O)O)cn1c23 [LEVOFLOXACIN]
Klebsiella pneumoniae [22]
  MIC: > 100 µM
Klebsiella pneumoniae [23]
  MIC: 80 µM (≈ 28.9 µg/mL)
Escherichia coli [24]
  MIC: 20 µM (≈ 7.23 µg/mL)
Klebsiella pneumoniae [25]
  MIC: 10 µM (≈ 3.61 µg/mL)
Klebsiella pneumoniae [26]
  MIC: 0.03 µM (≈ 0.0108 µg/mL)
Escherichia coli [27]
  MIC: 80 µM (≈ 28.9 µg/mL)

Source: ChEMBL document CHEMBL3603789, “N-Lipidated Peptide Dimers: Effective Antibacterial Agents against Gram-Negative Pathogens through Lipopolysaccharide Permeabilization” (J Med Chem, 2015)
